Results: patent US11465980B2, “6-membered aza-heterocyclic containing delta-opioid receptor modulating compounds, methods of using and making the same” (Trevena, Inc., priority 2015, dated 2022)

Assays:
mouse = assay: Tactile allodynia produced by intraplantar Freund's Complete Adjuvant, von Frey (mouse); type: in vivo; conditions: route sc, p < 0.05 vs vehicle
Protocol: Animals were acclimated to the vivarium for at least 48 hr prior to behavioral testing. Inflammation was induced for both rodent species with the administration of an intraplantar (subcutaneous injection into the plantar surface of the hind paw, i.pl.) injection of 0.10 ml Freund's Complete Adjuvant (FCA).
For mouse studies, the experiments were conducted 48 hours after FCA administration. Tactile allodynia was measured using a series of von Frey monofilaments. These filaments are bendable, plastic and intended to poke, not penetrate, the skin. Animals were placed in a Plexiglas chamber (approximately 10 cm×20 cm×25 cm) and allowed to habituate for 5-10 minutes. The chamber was positioned on top of a mesh screen so that von Frey monofilaments can be presented to the plantar surface of the hind paw that is inflamed. The measurement of tactile sensitivity for the injected hind paw is obtained using the up/down method (LaBuda and Little, 2005, J Neurosci. Methods, 144, 175) with […]. Each trial will start with a von Frey force of 0.6 grams delivered to the hind paw for approximately 1-2 seconds. If there was no withdrawal response, the next higher force was be delivered. If there was a response, the next lower force was delivered. This procedure was performed until no response was made at the highest force (2 grams) or until four stimuli are administered following the initial response. The 50% paw withdrawal threshold for the hind paw was be calculated using the following formula: [Xth]log=[vFi]log+ky where [vFr] is the force of the last von Frey used, k is the average interval (in log units) between the von Frey monofilaments, and y is a value that depends upon the pattern of withdrawal responses (Dixon, Annual Review Pharmacol Toxicol, 1980, 20, 441).

adult male C57 mice = assay: Tail suspension test (TST); type: in vivo, mouse; conditions: route sc, po; p < 0.05 compared to vehicle-treated mice
Protocol: The experiments were performed using adult male C57 mice (6-10 weeks of age, 20-30 g, Hilltop Lab, PA). The mice were housed in standard rodent cages with stainless steel mesh wire bar lids in groups of 4 with controlled temperature and light cycle (6:00 a.m.-6:00 p.m.). Animals were given free access to food (Harlan Teklad Global 18% protein (Madison, Wis.)) and water during a minimum 2-day habituation period to the laboratory. Animals that were used in the study were handled, housed, and sacrificed (using compressed CO2) in accord with the current NIH guidelines regarding the use and care of laboratory animals, and all applicable local, state, and federal regulations and guidelines. Animals are identified by cage number, and by markings applied to the proximal tip of the tail using a permanent marker. Group sizes (n=8, and therefore 30-50 animals per study) provide reliable estimates of treatment effects, and this species and strain of mouse has been recognized as appropriate for pharmacology studies.
To measure efficacy of the compounds the compounds were tested using a tail suspension test. The tail suspension test is a behavioral test used to evaluate the efficacy of antidepressant drugs in rodents. In the TST, mice (n=8/group) were suspended by the tail with tape approximately 30-50 cm above the lab bench. Mice are positioned such that the base of their tail is perpendicular to the lab bench. Each mouse is given 1 trial that last 6 minutes. The total duration of immobility is calculated as the percentage of time that the mouse is immobile. The duration of immobility is the main parameter measured. This is calculated from the cumulated time during which the animals is absent of initiated movements including passive swaying. When antidepressant drugs are administered, immobility is decreased by a variety of classes of antidepressant drugs. One or more of the compounds show antidepressant activity.

COCCOc1cccc([C@@H]2CCN(CCn3cccc3)[C@H](C)[C@H]2COc2ccc3c(c2)C(=O)NC3)c1 (relative stereo) [Compound B1049, (−)-6-{[(trans, trans)-4-[3-(2-methoxyethoxy)phenyl]-2-methyl-1-[2-(1H-pyrrol-1-yl)ethyl]piperidin-3-yl]methoxy}-2,3-dihydro-1H-isoindol-1-one]
Active CFA Dose (mouse): ≤10 mg/kg | Active TST Dose (adult male C57 mice): ≤30 mg/kg
